Tests used:
Assay in all cases: relative viability (nuclei count vs DMSO), 5 days (fraction); higher = more cells survive
Trametinib + Tozasertib = compound: CC(=O)Nc1cccc(-n2c(=O)n(C3CC3)c(=O)c3c(Nc4ccc(I)cc4F)n(C)c(=O)c(C)c32)c1 [Trametinib] + Cc1cc(Nc2cc(N3CCN(C)CC3)nc(Sc3ccc(NC(=O)C4CC4)cc3)n2)n[nH]1 [Tozasertib] (partner 0.1 µM)
Summary of the method: (§1)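 One day after seeding in 1536-well plates, lung cancer cell lines were dosed by pin tool. Dosing was either single-drug or a fixed anchor-drug dose plus five library-drug doses (not always all listed) in √10 steps. After 5 days, nuclei were stained in one fix-and-stain step and counted on 4× images, and relative viability is the nuclei count of treated wells over that of vehicle wells, given as the median of duplicate plates.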

Trametinib + Alpelisib = compound: CC(=O)Nc1cccc(-n2c(=O)n(C3CC3)c(=O)c3c(Nc4ccc(I)cc4F)n(C)c(=O)c(C)c32)c1 [Trametinib] + Cc1nc(NC(=O)N2CCC[C@H]2C(N)=O)sc1-c1ccnc(C(C)(C)C(F)(F)F)c1 [Alpelisib] (partner 2 µM)
Summary of the method: as §1

[1] = compound: CN1C=C(C2=CC=CC=C21)/C=C\3/C4=C(C=CC=N4)NC3=O + CC1(C)CCC(c2ccc(Cl)cc2)=C(CN2CCN(c3ccc(C(=O)NS(=O)(=O)c4ccc(N[C@H](CCN5CCOCC5)CSc5ccccc5)c(S(=O)(=O)C(F)(F)F)c4)cc3)CC2)C1 [Navitoclax] (partner 0.5 µM)
Summary of the method: as §1

[2] = compound: CN1C=C(C2=CC=CC=C21)/C=C\3/C4=C(C=CC=N4)NC3=O + O=C(c1cc(Cc2n[nH]c(=O)c3ccccc23)ccc1F)N1CCN(C(=O)C2CC2)CC1 [Olaparib] (partner 8 µM)
Summary of the method: as §1

| Cell Line | relative viability (Trametinib + Tozasertib; first compound 0.0025 µM) | relative viability (Trametinib + Tozasertib; first compound 0.007906 µM) | relative viability (Trametinib + Tozasertib; first compound 0.025 µM) | relative viability (Trametinib + Tozasertib; first compound 0.07906 µM) | relative viability (Trametinib + Tozasertib; first compound 0.25 µM) | relative viability (Trametinib + Alpelisib; first compound 0.0025 µM) | relative viability (Trametinib + Alpelisib; first compound 0.007906 µM) | relative viability (Trametinib + Alpelisib; first compound 0.025 µM) | relative viability (Trametinib + Alpelisib; first compound 0.07906 µM) | relative viability (Trametinib + Alpelisib; first compound 0.25 µM) | relative viability ([1]; first compound 0.02 µM) | relative viability ([1]; first compound 0.06325 µM) | relative viability ([1]; first compound 0.6325 µM) | relative viability ([1]; first compound 2 µM) | relative viability ([2]; first compound 0.02 µM) | relative viability ([2]; first compound 0.06325 µM) | relative viability ([2]; first compound 0.2 µM) | relative viability ([2]; first compound 0.6325 µM) | relative viability ([2]; first compound 2 µM) | relative viability ([1]; first compound 0.2 µM) |
| --- | --- | --- | --- | --- | --- | --- | --- | --- | --- | --- | --- | --- | --- | --- | --- | --- | --- | --- | --- | --- |
| NCI-H647 | 0.188 | 0.216 | 0.261 | 0.216 | 0.136 | 1.14 | 0.956 | 0.768 | 0.638 | 0.199 | 0.767 | 0.983 | 0.919 | 0.935 | 0.262 | 0.426 | 0.446 | 0.395 | 0.458 |  |
| BEN | 0.461 | 0.497 | 0.458 | 0.602 | 0.476 | 0.951 | 0.939 |  | 0.763 | 0.888 | 0.0672 | 0.0704 | 0.0636 | 0.0694 | 1.01 | 0.91 | 0.885 | 1.14 | 1.24 | 0.0656 |
| 201T | 0.985 | 0.835 | 0.795 | 0.798 | 0.653 | 1.02 | 0.914 | 0.866 | 0.893 | 0.765 | 1.22 | 1.21 | 1.27 | 1.23 | 0.821 | 0.781 | 0.868 | 0.931 | 0.87 | 1.24 |
| LC-2-ad | 0.487 | 0.406 | 0.406 | 0.393 | 0.306 | 0.864 | 0.452 | 0.662 | 0.408 | 0.233 | 0.412 | 0.304 | 0.412 | 0.389 | 0.658 | 0.705 | 0.722 | 0.72 | 0.663 | 0.439 |
| LCLC-97TM1 | 0.202 | 0.29 | 0.225 | 0.143 | 0.19 | 0.216 | 0.199 | 0.146 | 0.183 | 0.11 | 0.322 |  | 0.566 | 0.36 |  | 0.348 | 0.309 | 0.314 | 0.289 |  |
| NCI-H1915 | 0.453 | 0.337 | 0.268 | 0.219 | 0.165 | 1.06 | 0.906 | 0.6 | 0.528 | 0.254 | 0.823 | 0.8 | 0.772 | 0.801 | 0.259 | 0.257 | 0.28 | 0.304 | 0.257 | 0.805 |
| NCI-H3122 | 0.367 | 0.322 | 0.183 | 0.217 | 0.142 | 0.466 | 0.395 | 0.224 | 0.234 | 0.21 | 0.907 | 1.01 | 1.11 | 1.06 | 0.621 | 0.578 | 0.653 | 0.681 | 0.652 | 0.989 |
| NCI-H1993 | 0.539 | 0.498 | 0.568 | 0.558 | 0.459 | 0.649 | 0.722 | 0.656 | 0.699 | 0.649 | 0.726 | 0.768 | 0.682 | 0.856 | 0.781 | 1.09 | 1.06 | 0.972 | 0.966 | 0.894 |
| NCI-H2405 | 0.695 | 0.687 | 0.664 | 0.497 | 0.468 | 0.599 | 0.42 | 0.339 | 0.379 | 0.315 | 0.891 | 0.803 | 1.1 | 0.732 | 0.854 | 0.843 | 0.729 | 0.87 | 0.804 | 0.65 |

Source: the supplement of paper PMC10307832
